One assay concerns the target T1, SHP2-E76K (Homo sapiens, UniProt Q06124, E76K).
T1 construct: Recombinant human full-length SHP2 (1–594) WT and E76K mutants; made in house
T1 sequence (Q06124 1-593 E76K): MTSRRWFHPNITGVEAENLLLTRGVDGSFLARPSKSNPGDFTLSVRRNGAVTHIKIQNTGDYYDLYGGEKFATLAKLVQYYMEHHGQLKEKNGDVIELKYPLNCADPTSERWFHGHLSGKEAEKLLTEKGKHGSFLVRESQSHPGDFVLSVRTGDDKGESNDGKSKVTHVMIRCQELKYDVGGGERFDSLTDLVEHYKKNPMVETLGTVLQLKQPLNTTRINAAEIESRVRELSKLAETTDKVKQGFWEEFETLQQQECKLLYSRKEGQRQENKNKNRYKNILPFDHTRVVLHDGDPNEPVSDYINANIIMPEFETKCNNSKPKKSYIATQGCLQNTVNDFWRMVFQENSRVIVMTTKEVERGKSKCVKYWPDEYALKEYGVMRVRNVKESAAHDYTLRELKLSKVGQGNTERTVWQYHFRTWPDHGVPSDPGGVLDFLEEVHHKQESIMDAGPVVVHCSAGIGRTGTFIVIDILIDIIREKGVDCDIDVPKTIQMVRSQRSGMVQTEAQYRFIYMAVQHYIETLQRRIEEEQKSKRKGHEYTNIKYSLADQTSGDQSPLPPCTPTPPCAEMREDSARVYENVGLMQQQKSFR
The experiment in a line: Time-dependent inhibition (preincubation 1-60 min). As to conditions: preincubation 1, 5, 10, 20 or 60 min with SHP2-E76K. Format: biochemical. How it is done: (§1) PTPs contain a highly nucleophilic cysteine that is essential for catalytic activity but is susceptible to oxidation and covalent modifications, which abrogate its nucleophilic function and phosphatase activity ([26]). Because the methylenebenzothiophenone moiety of our inhibitors could potentially act as a Michael acceptor and thus covalently bind to the catalytic cysteine, we tested whether the observed inhibition of SHP2 was dependent on the preincubation time of inhibitor and enzyme. An irreversible covalent inhibitor may show time-dependent inhibition, with increased potency at longer incubation times. Conversely, the potency of a noncovalent inhibitor is expected to be insensitive to the time it is incubated with the enzyme. To test for time-dependent inhibition, SBI-2130 at ten different concentrations was preincubated with SHP2-E76K for 1, 5, 10, 20, or 60 min, before the DiFMUP substrate was added to the reaction mixture and initial rates were recorded (Fig. 3C). […] In addition, we used mass spectrometry to test whether inhibitor:protein adducts are being formed. Specifically, we incubated SHP2cat (5 μM) with SBI-4668 (100 μM) in assay buffer for various times (1, 5, 20, and 60 min) before trypsin proteolysis and subsequent mass spectrometry analysis. […] Finally, we performed a jump-dilution experiment to test for irreversible inhibition of SHP2. […]

Another assay has as its target T2, SHP2cat (Homo sapiens, UniProt Q06124).
T2 construct: the SHP2 catalytic domain (SHP2cat; residues 248–527); made in house
T2 sequence (Q06124 248-527): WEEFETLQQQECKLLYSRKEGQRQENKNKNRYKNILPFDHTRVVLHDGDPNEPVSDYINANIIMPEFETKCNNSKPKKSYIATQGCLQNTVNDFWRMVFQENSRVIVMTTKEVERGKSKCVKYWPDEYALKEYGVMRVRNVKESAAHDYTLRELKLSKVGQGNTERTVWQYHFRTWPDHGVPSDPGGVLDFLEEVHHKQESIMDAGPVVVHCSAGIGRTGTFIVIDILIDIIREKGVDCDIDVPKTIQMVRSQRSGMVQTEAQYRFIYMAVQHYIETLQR
The experiment in a line: Mass spectrometry test for inhibitor:protein adducts. To be noted: SHP2cat 5 μM, inhibitor 100 μM, 1-60 min. How it is done:
as §1

Assay [1] concerns phospho-ERK1/2 (p-ERK1/2) in U-937 AML cells. The experiment in a line: p-ERK1/2 immunoblot, U-937. Format: cell-based. As to conditions: SBI-4668 1, 3, 10, 30 μM, RMC-4550 1 μM. The source says: Oncogenic gain-of-function mutations in SHP2 drive leukemogenesis in a significant number of leukemia patients. However, because of their unique mechanism of action, the existing SHP2 allosteric inhibitors lack activity against the most common SHP2 oncogenic variants. Thus, we tested whether our inhibitors could inhibit the growth of leukemia cells expressing oncogenic SHP2 variants. […] Thus, we tested both SBI-4668 and RMC-4550 on U-937 AML cells, which harbor a G60R oncogenic mutation in SHP2. We treated cells with either SBI-4668 or RMC-4550 at various concentrations, ranging from 0.123 to 30 μM (Fig. 5A). […] We also assessed the effects of SBI-4668 and RMC-4550 on ERK1/2 activation in the SHP2 mutant U-937 cell line. Similar to the immunoblot experiments described for MOLM-13 cells above, U-937 AML cells were treated with either vehicle control (DMSO), SBI-4668 (1, 3, 10, or 30 μM), or with RMC-4550 (1 μM) for 24 h and processed for p-ERK1/2 immunoblot analysis (Fig. 5B).
Cells cultured in RPMI medium were treated as indicated in the legends to the figures. […] Densitometric quantitation of immunoblots was performed using Image Studio Lite Software (LI-COR). Changes of phosphorylated ERK1/2 to total ERK1/2 ratios are expressed as percentage of the vehicle-treated controls. […]
(A western blot detects proteins with antibodies after separation by electrophoresis.)

Entries after “also recorded” stand apart in the source; their conditions may differ.

In the case of `Nc1ccc(NC(=O)c2cc(-c3ccc(/C=C4\Sc5ccccc5C4=O)o3)ccc2O)cc1` [SBI-2130, (Z)-N-(4-Aminophenyl)-2-hydroxy-5-(5-((3-oxobenzo[b]thiophen-2(3H)-ylidene)methyl)furan-2-yl)benzamide], the time-dependent inhibition result on SHP2-E76K is given as “No time-dependent inhibition; also recorded: not time dependent”.
With `O=C(Nc1ccccc1)c1cc(-c2ccc(/C=C3\Sc4ccccc4C3=O)o2)ccc1O` [SBI-4668, (Z)-2-Hydroxy-5-(5-((3-oxobenzo[b]thiophen-2(3H)-ylidene)methyl)furan-2-yl)-N-phenylbenzamide], the “inhibitor:protein adduct formation (mass spectrometry)” value at SHP2cat is recorded as “no adduct formation”. The “p-ERK1/2 levels, U-937, 24 h” value in assay [1] was “dose-dependently inhibited ERK1/2 activation”.

Source of the values: publication PMC8760490, “Discovery of novel furanylbenzamide inhibitors that target oncogenic tyrosine phosphatase SHP2 in leukemia cells” (The Journal of Biological Chemistry, 2021).
